{
  "source": "BindingDB's records for doi:10.1016/S0960-894X(01)80136-0",
  "about": "(1994)",
  "data": [
    {"assay": "Apparent inhibition constant of the FKBP […] isomerase (PPIase) activity", "units": {"Ki": "µM"}, "values": [
      {"smiles": "CC1(C)COC(=O)CCCCCCCCCOC(=O)[C@@H]2CCCCN2C(=O)C1=O", "Ki": 30},
      {"smiles": "CC1(C)COC(=O)CCCCCCCCCCCCCCCOC(=O)C2CCCCN2C(=O)C1=O", "note": "(stereo not given) [7,7-Dimethyl-icosahydro-9,26-dioxa-4a-aza-benzocyclopentacosene-5,6,10,27-tetraone]", "Ki": 11000},
      {"smiles": "CC1(C)COC(=O)CCCOC(=O)C2CCCCN2C(=O)C1=O", "note": "(stereo not given) [7,7-Dimethyl-octahydro-9,14-dioxa-4a-aza-benzocyclotridecene-5,6,10,15-tetraone]", "Ki": 2900},
      {"smiles": "CC1(C)COC(=O)CCCCCCCCCOC(=O)C2CCCCN2C(=O)C1=O", "note": "(stereo not given) [7,7-Dimethyl-tetradecahydro-9,20-dioxa-4a-aza-benzocyclononadecene-5,6,10,21-tetraone]", "Ki": 90},
      {"smiles": "CC1(C)COC(=O)CCCCCCCCCCC(CCC2CCCCC2)OC(=O)C2CCCCN2C(=O)C1=O", "note": "(stereo not given) [21-(2-Cyclohexyl-ethyl)-7,7-dimethyl-hexadecahydro-9,22-dioxa-4a-aza-benzocyclohenicosene-5,6,10,23-tetraone]", "Ki": 190}
    ]}
  ]
}
